Measured values published in patent US20020133846A1, “Method for protecting plants” (priority 1996, published 2002).
Like-named read-outs stand apart in the source and are kept apart here.

Tests used:
[1] = test system: Peronospora parasitica isolate Emwa; test: Action against Peronospora parasitica in Arabidopsis overexpressing NIM1 (lines 6E, 7C) and wild-type Ws; assay type: in vivo; settings: for inhibition at 500 µg/mL: fosetyl 0.5 g/l; for inhibition at 5000 µg/mL: fosetyl 5.0 g/l
Source text: The plant lines used in this example (6E and 7C) were generated from transformation of wild-type Arabidopsis thaliana plants (ecotype Ws) with the BamHI-HindIII NIM1 genomic fragment (SEQ ID NO:1—bases 1249-5655), as described above in Example 21. The fungicides metalaxyl, fosetyl, and copper hydroxide, formulated as 25%, 80%, and 70% active ingredient (ai), respectively, with a wettable powder carrier, were applied as fine mist to leaves of three week-old transgenic Ws plants constitutively expressing the NIM1 gene. The wettable powder alone was applied as a control. Three days later, plants were inoculated with a Peronospora parasitica isolate Emwa conidial suspension (1-2×10^5 spores/ml), as described in Delaney et al. (1995). Following inoculation, plants were covered to maintain high humidity and were placed in a Percival growth chamber at 17° C. with a 14-hr day/10-hr night cycle (Uknes et al., 1993). Tissue was harvested 8 days after inoculation.
Fungal infection progression was followed for 12 days by viewing under a dissecting microscope to score development of conidiophores (Delaney, et al. (1994); Dietrich, et al. (1994)). Lactophenoltrypan blue staining of individual leaves was carried out to observe fungal growth within leaf tissue. Fungal growth was quantified using a rRNA fungal probe obtained by PCR according to White et al. (1990; PCR Protocols: A guide to Methods and Application, 315-322) using primers NS1 and NS2 and P. parasitica EmWa DNA as templates. RNA was purified from frozen tissue by phenol/chloroform extraction following lithium chloride precipitation (Lagrimini et al, 1987: PNAS, 84: 7542-7546). Samples (7.5 μg) were separated by electrophoresis through formaldehyde agarose gels and blotted to nylon membranes (Hybond-N+, Amersham) as described by Ausbel et al. (1987). Hybridizations and washing were according to Church and Gilbert (1984, PNAS, 81: 1991-1995). Relative amounts of the transcript were determined using a Phosphor Imager (Molecular Dynamics, Sunnyvale, Calif.) following manufacturers instructions. Sample loading was normalized by probing stripped filter blots with the constitutively expressed b-tubulin Arabidopsis cDNA.

[2] = test system: Peronospora parasitica Emwa; test: Action against Peronospora parasitica Emwa in Arabidopsis thaliana (Ws), rRNA fungal probe; assay type: in vivo
[3] = test system: Colletotrichum lagenarium; test: Action against Colletotrichum lagenarium on Cucumis sativus L., soil application; assay type: in vivo
[4] = test system: Colletotrichum lagenarium; test: Action against Colletotrichum lagenarium on Cucumis sativus L., foliar application; assay type: in vivo
Pyricularia oryzae [5] = assay type: in vivo
Cercospora nicotianae = test: Action against Cercospora nicotianae on tobacco plants; assay type: in vivo
Puccinia recondita = test: Action against Puccinia recondita in wheat
Experimental: 7-day-old wheat plants were sprayed to drip point with a spray mixture prepared from a formulated active ingredient, or combination of active ingredients. After 4 days, the treated plants were infected with a conidia suspension of the fungus, and the treated plants were subsequently incubated for 2 days at a relative atmospheric humidity of 90-100% and 20 C. 10 days post-infection, the fungus infestation was assessed.

Pyricularia oryzae [6] = assay type: in vivo; remark: listed apart in the source
Erysiphe graminis = test: Action against Erysiphe graminis on barley (residual-protective / systemic)
Experimental: Residual-protective action: Barley plants about 8 cm in height were sprayed to drip point with an aqueous spray mixture (max. 0.02 % active ingredient) and were dusted 3 to 4 days later with conidia of the fungus. The infected plants were stood in a greenhouse at 22°. Fungus infestation was generally evaluated 10 days after infection.
Systemic action: Barley plants about 8 cm in height were watered with an aqueous spray mixture (max. 0.002 % active ingredient, based on the volume of the soil). […] The plants were dusted with conidia of the fungus 3 to 4 days later. The infected plants were stood in a greenhouse at 22°. Fungus infestation was generally evaluated 10 days after infection.

[7] = Hyaloperonospora parasitica, in Arabidopsis thaliana, Table 37, wt Ws, read-out: Fungal Growth Inhibition % O (observed)
[8] = Hyaloperonospora parasitica, in Arabidopsis thaliana, wild-type Ws (Table 38), read-out: Fungal Growth Inhibition % O (observed)

SMILES: CCO[PH](=O)O [fosetyl, ethyl hydrogen phosphonate]
- inhibition at 50 µg/mL ([1]; Hyaloperonospora parasitica, in Arabidopsis thaliana, Table 37, wt Ws, fosetyl 0.05 g/l, read-out: Fungal Growth Inhibition % O (observed)): 0%
- inhibition at 500 µg/mL [1, 7]: 2%
- inhibition at 5000 µg/mL [1, 7]: 7%
- inhibition at 500 µg/mL [1, 8]: 2%
- inhibition at 5000 µg/mL [1, 8]: 7%
- inhibition at 40 µg/mL ([2]; Hyaloperonospora parasitica, in Arabidopsis thaliana, Table 31, Ws, fosetyl alone 0.04 g/l, read-out: Fungal Growth Inhibition % O (observed)): 0%
- inhibition at 200 µg/mL ([2]; Hyaloperonospora parasitica, in Arabidopsis thaliana, Table 31, Ws, fosetyl alone 0.2 g/l, read-out: Fungal Growth Inhibition % O (observed)): 10%
- inhibition at 1000 µg/mL ([2]; Hyaloperonospora parasitica, in Arabidopsis thaliana, Table 31, Ws, fosetyl alone 1.0 g/l, read-out: Fungal Growth Inhibition % O (observed)): 40%

SMILES: CO/C=C(/C(=O)OC)c1ccccc1Oc1cc(Oc2ccccc2C#N)ncn1 [azoxystrobin, methyl-(E)-2-{2-[6-(2-cyanophenoxy)pyrimidin-4-yloxy]phenyl}-3-methoxyacrylate]
- % action O (observed) ([3]; Table 5, comp. II alone 0.2 ppm): 0%
- % action O (observed) ([3]; Table 5, comp. II alone 0.6 ppm): 9%
- % action O (observed) ([3]; Table 5, comp. II alone 2 ppm): 28%
- % action O (observed) ([3]; Table 5, comp. II alone 6 ppm): 66%
- % action O (observed) ([3]; Table 8, comp. II alone 0.02 ppm): 1%
- % action O (observed) ([3]; Table 8, comp. II alone 0.06 ppm): 5%
- % action O (observed) ([3]; Table 8, comp. II alone 0.6 ppm): 27%
- % action O (observed) ([3]; Table 8, comp. II alone 2 ppm): 61%
- % action O (observed) ([3]; Table 8, comp. II alone 6 ppm): 93%
- % action O (observed) ([4]; Table 4, comp. II alone 0.06 ppm): 5%
- % action O (observed) ([4]; Table 4, comp. II alone 0.2 ppm): 9%
- % action O (observed) ([4]; Table 4, comp. II alone 0.6 ppm): 12%
- % action O (observed) ([4]; Table 4, comp. II alone 6 ppm): 17%
- % action O (observed) ([4]; Table 7, comp. II alone 2 ppm): 18%
- % action O (observed) ([4]; Table 7, comp. II alone 6 ppm): 75%

SMILES: CO/N=C(/C(=O)OC)c1ccccc1COc1ccccc1C [cresoxime methyl, methyl-(E)-2-methoximino-2-[μ-(o-tolyloxy)-o-tolyl]acetate]
- % action O (observed) ([4]; Table 6, comp. II alone 2 ppm): 0%
- % action O (observed) ([4]; Table 6, comp. II alone 20 ppm): 41%

SMILES: Cc1cccc2sc3nncn3c12 [tricyclazole, 5-methyl-1,2,4-triazolo[3,4-b][1,3]benzothiazole]
- % action O (observed) (Pyricularia oryzae [5]; Table 15, comp. II alone 0.1 ppm): 32%
- % action O (observed) (Pyricularia oryzae [5]; Table 15, comp. II alone 0.25 ppm): 48%
- % action O (observed) (Pyricularia oryzae [5]; Table 15, comp. II alone 0.5 ppm): 71%
- % action O (observed) (Pyricularia oryzae [5]; Table 15, comp. II alone 1 ppm): 74%

SMILES: CC(C1CC1)C(O)(Cn1cncn1)c1ccc(Cl)cc1 (stereo not shown) [cyproconazol, μ-(4-chlorophenyl)-μ-(1-cyclopropylethyl)-1H-1,2,4-triazole-1-ethanol]
- % action O (observed) (Cercospora nicotianae; Table 10, comp. II alone 2 ppm): 0%
- % action O (observed) (Cercospora nicotianae; Table 10, comp. II alone 6 ppm): 0%

SMILES: CC(Cc1ccc(C(C)(C)C)cc1)CN1CCCCC1 (stereo not shown) [fenpropidine, 1-[3-(4-tert-butylphenyl)-2-methylpropyl]-piperidine]
- % action O (observed) (Puccinia recondita; Table 20, comp. II alone 20 kg a.i. per ha): 40%
- % action O (observed) (Puccinia recondita; Table 20, comp. II alone 60 kg a.i. per ha): 60%

SMILES: CCC1(C(=O)NC(C)c2ccc(Cl)cc2)C(C)C1(Cl)Cl [KTU 3616, (1R,3S/1S,3R)-2,2-dichloro-N-[(R)-1-(4-chlorophenyl)ethyl]-1-ethyl-3-methylcyclopropanecarboxamide]
- % action O (observed) (Pyricularia oryzae [6]; Table 13, comp. II alone 0.02 ppm): 0%
- % action O (observed) (Pyricularia oryzae [6]; Table 13, comp. II alone 0.06 ppm): 28%
- % action O (observed) (Pyricularia oryzae [6]; Table 13, comp. II alone 0.2 ppm): 47%
- % action O (observed) (Pyricularia oryzae [6]; Table 13, comp. II alone 0.6 ppm): 79%
- % action O (observed) (Pyricularia oryzae [6]; Table 13, comp. II alone 2 ppm): 83%
- % action O (observed) (Pyricularia oryzae [6]; Table 13, comp. II alone 6 ppm): 91%

SMILES: CC(C)(C)C(O)(CCc1ccc(Cl)cc1)Cn1cncn1 (stereo not shown) [tebuconazol, μ-[2-(4-chlorophenyl)ethyl]-μ-(1,1-dimethylethyl)-1H-1,2,4-triazole-1-ethanol]
- % action O (observed) (Cercospora nicotianae; Table 9, comp. II alone 2 ppm): 0%
- % action O (observed) (Cercospora nicotianae; Table 9, comp. II alone 6 ppm): 0%

SMILES: CC1COC(Cn2cncn2)(c2ccc(Oc3ccc(Cl)cc3)cc2Cl)O1 (stereo not shown) [difenoconazole, 1-{2-[2-chloro-4-(4-chlorophenoxy)phenyl]-4-methyl-1,3-dioxolan-2-ylmethy 1)-1H-1,2,4-triazole]
- % action O (observed) (Cercospora nicotianae; Table 12, comp. II alone 0.6 kg a.i. per ha): 3%
- % action O (observed) (Cercospora nicotianae; Table 12, comp. II alone 2 kg a.i. per ha): 23%
- % action O (observed) (Cercospora nicotianae; Table 12, comp. II alone 6 kg a.i. per ha): 32%

SMILES: CC(Cc1ccc(C(C)(C)C)cc1)CN1C[C@@H](C)O[C@@H](C)C1 (relative stereo) [fenpropimorph, cis-4-[3-(4-tert-butylphenyl)-2-methylpropyl]-2,6-dimethylmorpholine]
- % action O (observed) (Cercospora nicotianae; Table 11, comp. II alone 2 kg a.i. per ha): 13%
- % action O (observed) (Cercospora nicotianae; Table 11, comp. II alone 6 kg a.i. per ha): 23%
- % action O (observed) (Cercospora nicotianae; Table 11, comp. II alone 10 kg a.i. per ha): 42%

SMILES: [Cu+2].[OH-].[OH-] [Cu(OH)2, copper hydroxide]
- Fungal Growth Inhibition % O (observed) ([1]; Cu(OH)2 0.02 g/l, wild-type Ws (Table 39)): 0%
- Fungal Growth Inhibition % O (observed) ([1]; Cu(OH)2 0.02 g/l, wild-type Ws (Table 40)): 0%
- Fungal Growth Inhibition % O (observed) ([1]; Cu(OH)2 0.2 g/l, wild-type Ws (Table 39)): 0%
- Fungal Growth Inhibition % O (observed) ([1]; Cu(OH)2 0.2 g/l, wild-type Ws (Table 40)): 0%
- Fungal Growth Inhibition % O (observed) ([1]; Cu(OH)2 2.0 g/l, wild-type Ws (Table 39)): 0%
- Fungal Growth Inhibition % O (observed) ([1]; Cu(OH)2 2.0 g/l, wild-type Ws (Table 40)): 0%
- Fungal Growth Inhibition % O (observed) ([2]; Table 32, Ws, Cu(OH)2 alone 0.01 g/l): 0%

SMILES: CC1(C)CCC(Cc2ccc(Cl)cc2)C1(O)Cn1cncn1 (stereo not shown) [metconazol, 5-(4-chlorobenzyl)-2,2-dimethyl-1-(1H-1,2,4-triazol-1-ylmethyl)-cyclopentanol]
- % action O (observed) (Erysiphe graminis; Table 1, comp. II alone 0.6 ppm): 10%
- % action O (observed) (Erysiphe graminis; Table 1, comp. II alone 2 ppm): 40%
- % action O (observed) (Erysiphe graminis; Table 1, comp. II alone 6 ppm): 51%
- % action O (observed) (Erysiphe graminis; Table 1, comp. II alone 20 ppm): 65%
- % action O (observed) (Erysiphe graminis; Table 3, comp. II alone 6 ppm): 17%
- % action O (observed) (Erysiphe graminis; Table 3, comp. II alone 20 ppm): 33%
- % action O (observed) (Erysiphe graminis; Table 3, comp. II alone 60 ppm): 50%
